From ChEMBL document CHEMBL3400117, “2-Aminophenanthroline dimer stabilized the C-C mismatched duplex DNA” (Bioorg Med Chem, 2015)

Assays:
[1] = Binding affinity to 5'-GCTAACCAAATGA-3'/3'-CGATTGCTTTACT-5' duplex DNA (unknown origin) assessed as change in melting temperature
[2] = Binding affinity to 5'-CTAACCGAATG-3'/3'-GATTGCCTTAC-5' duplex DNA (unknown origin) in sodium cacodylate buffer assessed as change in melting temperature at 10 uM at pH 7
[3] = Binding affinity to 5'-GCTAATCAAATGA-3'/3'-CGATTACTTTACT-5' duplex DNA (unknown origin) assessed as change in melting temperature
[4] = Binding affinity to 5'-GCTAAGCTAATGA-3'/3'-CGATTCCATTACT-5' duplex DNA (unknown origin) assessed as change in melting temperature
[5] = Binding affinity to 5'-CTAACTGAATG-3'/3'-GATTGTCTTAC-5' duplex DNA (unknown origin) in sodium cacodylate buffer assessed as change in melting temperature at 10 uM at pH 7
[6] = Binding affinity to 5'-CTAACTGAATG-3'/3'-GATTGCCTTAC-5' duplex DNA (unknown origin) in sodium cacodylate buffer assessed as change in melting temperature at 10 uM at pH 7
[7] = Binding affinity to 5'-GCTAAACTAATGA-3'/3'-CGATTTCATTACT-5' duplex DNA (unknown origin) assessed as change in melting temperature
[8] = Binding affinity to 5'-CTAACAGAATG-3'/3'-GATTGGCTTAC-5' duplex DNA (unknown origin) in sodium cacodylate buffer assessed as change in melting temperature at 10 uM at pH 7
[9] = Binding affinity to 5'-GCTAAGCAAATGA-3'/3'-CGATTCCTTTACT-5' duplex DNA (unknown origin) assessed as change in melting temperature
[10] = Binding affinity to 5'-GCTAAACAAATGA-3'/3'-CGATTTCTTTACT-5' duplex DNA (unknown origin) assessed as change in melting temperature
[11] = Binding affinity to 5'-GCTAACCTAATGA-3'/3'-CGATTGCATTACT-5' duplex DNA (unknown origin) assessed as change in melting temperature
[12] = Binding affinity to 5'-CTAACTGAATG-3'/3'-GATTGGCTTAC-5' duplex DNA (unknown origin) in sodium cacodylate buffer assessed as change in melting temperature at 10 uM at pH 7
[13] = Binding affinity to 5'-CTAACTGAATG-3'/3'-GATTGACTTAC-5' duplex DNA (unknown origin) in sodium cacodylate buffer assessed as change in melting temperature at 10 uM at pH 7
[14] = Binding affinity to 5'-GCTAACCGAATGA-3'/3'-CGATTGCCTTACT-5' duplex DNA (unknown origin) assessed as change in melting temperature
[15] = Binding affinity to 5'-CTAACGGAATG-3'/3'-GATTGGCTTAC-5' duplex DNA (unknown origin) in sodium cacodylate buffer assessed as change in melting temperature at 10 uM at pH 7
[16] = Binding affinity to 5'-GCTAACCCAATGA-3'/3'-CGATTGCGTTACT-5' duplex DNA (unknown origin) assessed as change in melting temperature
[17] = Binding affinity to 5'-CTAACCGAATG-3'/3'-GATTGGCTTAC-5' duplex DNA (unknown origin) in sodium cacodylate buffer assessed as change in melting temperature at 10 uM at pH 7
[18] = Binding affinity to 5'-GCTAAGCCAATGA-3'/3'-CGATTCCGTTACT-5' duplex DNA (unknown origin) assessed as change in melting temperature
[19] = Binding affinity to 5'-CTAACAGAATG-3'/3'-GATTGACTTAC-5' duplex DNA (unknown origin) in sodium cacodylate buffer assessed as change in melting temperature at 10 uM at pH 7
[20] = Binding affinity to 5'-CTAACAGAATG-3'/3'-GATTGCCTTAC-5' duplex DNA (unknown origin) in sodium cacodylate buffer assessed as change in melting temperature at 10 uM at pH 7
[21] = Binding affinity to 5'-CTAACCGAATG-3'/3'-GATTGCCTTAC-5' duplex DNA (unknown origin) in sodium cacodylate buffer assessed as change in melting temperature at pH 7
[22] = Binding affinity to 5'-TCCAG_GCAAC-3'/3'-AGGTCACGTTG-5' duplex DNA (unknown origin) in sodium cacodylate buffer assessed as change in melting temperature at 20 uM at pH 7
[23] = Binding affinity to 5'-TCCAGGCAAC-3'/3'-AGGTCCGTTG-5' duplex DNA (unknown origin) in sodium cacodylate buffer assessed as change in melting temperature at 20 uM at pH 7
[24] = Binding affinity to 5'-TCCAG_GCAAC-3'/3'-AGGTCGCGTTG-5' duplex DNA (unknown origin) in sodium cacodylate buffer assessed as change in melting temperature at 20 uM at pH 7
[25] = Binding affinity to 5'-TCCAG_GCAAC-3'/3'-AGGTCCCGTTG-5' duplex DNA (unknown origin) in sodium cacodylate buffer assessed as change in melting temperature at 20 uM at pH 7
[26] = Binding affinity to 5'-TCCAG_GCAAC-3'/3'-AGGTCTCGTTG-5' duplex DNA (unknown origin) in sodium cacodylate buffer assessed as change in melting temperature at 20 uM at pH 7

ΔTm [2] [°C] | ΔTm [5] [°C] | ΔTm [6] [°C] | ΔTm [8] [°C] | ΔTm [12] [°C] | ΔTm [13] [°C] | ΔTm [15] [°C] | ΔTm [17] [°C] | ΔTm [19] [°C] | ΔTm [20] [°C] | Compound | further results
7.8 | 1.4 | 4.4 | 1.5 | 0.3 | 0.4 | 1.4 | 0.3 | 2.1 | 4.4 | O=C(CCNCCC(=O)Nc1ccc2ccc3cccnc3c2n1)Nc1ccc2ccc3cccnc3c2n1 | ΔTm [1]: 3.8 °C; ΔTm [3]: 4.4 °C; ΔTm [4]: 5.6 °C; ΔTm [7]: 5.7 °C; ΔTm [9]: 4.2 °C; ΔTm [10]: 4 °C; ΔTm [11]: 5.6 °C; ΔTm [14]: 4 °C; ΔTm [16]: 4.7 °C; ΔTm [18]: 6.5 °C; Activity [21]: Dose-dependent effect
2.6 | 0.2 | 0.7 | -0.4 | -0.5 | -0.1 | -0.2 | 0.2 | -0.5 | 1.6 | O=C(CCNCCC(=O)Nc1ccc2ccccc2n1)Nc1ccc2ccccc2n1 | –
1.6 | 1.3 | 0.4 | 1.2 | 1.3 | 0.9 | 0.8 | 0.6 | 1.3 | 0.5 | NCCC(=O)Nc1ccc2ccc3cccnc3c2n1 | ΔTm [22]: 3.4 °C; ΔTm [23]: 0.2 °C; ΔTm [24]: 3 °C; ΔTm [25]: 6 °C; ΔTm [26]: 3.6 °C
2.6 | 1.5 | 2.3 | -0.2 | 0.1 | -0.1 | 0.3 | 0.3 | 0 | 0.4 | O=C(CCNCCC(=O)Nc1ccc2ccc3cccnc3c2n1)Nc1ccc2ccccc2n1 | –
